Measured values: the supplement of paper PMC10307832

Columns and labels:
Test in all cases: relative viability (nuclei count vs DMSO), 5 days (fraction); higher = more cells survive
[1] = compound: CCn1c(-c2nonc2N)nc2cnc(Oc3cccc(NC(=O)c4ccc(OCCN5CCOCC5)cc4)c3)cc21 + Nc1ncn([C@H]2C[C@H](O)[C@@H](CO)O2)c(=O)n1 [Decitabine] (partner 2 µM)
Summary of the method: (§1)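 Nuclei were stained with Hoechst during a one-step fixation (final 0.05% Triton X-100, 1% formaldehyde, 1 ug/ml Hoechst) carried out 5 days after dosing, then counted on 4× images. The cells, lung cancer lines in 1536-well plates, had been dosed by pin tool the day after seeding with one drug alone or a fixed anchor-drug dose plus five library-drug doses (not always all listed) in √10 steps. Relative viability is the nuclei count in treated wells divided by that in vehicle wells, and each value is the median of duplicate plates.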

[2] = compound: CCC1=CN=CN=C1N2CCN(CC2)CC3=NC4=C(N3)C=C(C=C4)C(F)(F)F + CC(C)C[C@H](NC(=O)[C@H](Cc1ccccc1)NC(=O)c1cnccn1)B(O)O [Bortezomib] (partner 0.002 µM)
Summary of the method: as §1

[3] = compound: CCC1=CN=CN=C1N2CCN(CC2)CC3=NC4=C(N3)C=C(C=C4)C(F)(F)F + C[C@@H](Oc1cc(-c2cnn(C3CCNCC3)c2)cnc1N)c1c(Cl)ccc(F)c1Cl [Crizotinib] (partner 1 µM)
Summary of the method: as §1

Mirin + Luminespib = compound: N=C1NC(=O)/C(=C/c2ccc(O)cc2)S1 [Mirin] + CCNC(=O)c1noc(-c2cc(C(C)C)c(O)cc2O)c1-c1ccc(CN2CCOCC2)cc1 [Luminespib] (partner 0.01 µM)
Summary of the method: as §1

Cell Line	relative viability ([1]; first compound 0.04 µM)	relative viability ([1]; first compound 0.1265 µM)	relative viability ([1]; first compound 0.4 µM)	relative viability ([1]; first compound 1.265 µM)	relative viability ([1]; first compound 4 µM)	relative viability ([2]; first compound 0.04 µM)	relative viability ([2]; first compound 0.1265 µM)	relative viability ([2]; first compound 0.4 µM)	relative viability ([2]; first compound 1.265 µM)	relative viability ([2]; first compound 4 µM)	relative viability ([3]; first compound 0.04 µM)	relative viability ([3]; first compound 0.1265 µM)	relative viability ([3]; first compound 0.4 µM)	relative viability ([3]; first compound 1.265 µM)	relative viability ([3]; first compound 4 µM)	relative viability (Mirin + Luminespib; first compound 0.25 µM)	relative viability (Mirin + Luminespib; first compound 0.7906 µM)	relative viability (Mirin + Luminespib; first compound 2.5 µM)	relative viability (Mirin + Luminespib; first compound 7.906 µM)	relative viability (Mirin + Luminespib; first compound 25 µM)
LOU-NH91	0.794	0.698	0.65	0.561	0.533	0.408	0.543	0.507	0.523	0.504	0.695	0.696	0.761	0.779	0.801	0.304	0.301	0.351	0.322	0.295
PC-3 [JPC-3]	0.803	0.764	0.764	0.655	0.725	0.838	0.765	0.757	0.807	0.854	0.989	0.919	0.948	0.92	0.934	0.664	0.732	0.758	0.651	0.787
NCI-H2126	0.629	0.623	0.56	0.636	0.519	1.05	1.08	1.19	1.16	1.14	1.01	1	0.959	1.01	1.1	0.86	0.881	0.934	0.9	0.898
LU99A	1.03	0.994	0.929	1.02	0.844	1.23	1.07	1.05	1.07	1.24	0.543	0.53	0.541	1	1.09	0.199	0.207	0.225	0.209	0.211
BEN	0.734	0.495	0.451	0.373	0.489	0.646	0.656	0.708	0.621	0.49	0.924	0.868	0.963	0.532	0.662	0.484	0.593	0.503	0.315	0.217
